Data reported in paper PMC10030075 (Medicinal Chemistry Research, 2023).

How the values were obtained:
[1] = in vitro; conditions: human, microsomes, pH 7.4
[2] = tested on: HBV; assay: Preliminary screening of anti-HBV activity; type: cell-based, hepatitis B virus; conditions: inhibition of HBsAg and HBeAg expression, HepG2.2.15 cells
[3] = in vitro; conditions: human, microsomes, pH 7.4; remark: listed apart in the source
[4] = tested on: duck hepatitis B virus; conditions: in vivo; cited from earlier work
[5] = tested on: Newcastle disease virus; conditions: cited from earlier work
[6] = tested on: hepatic fibrosis; conditions: 50 mg/kg or 100 mg/kg, by increasing phospho-FOXO1 expression; cited from earlier work

| Compound | half-life [1] [h] | anti-HBV activity (in words) [2] | half-life [3] [h] | levels of HBsAg and HBeAg in duck serum [4] | Newcastle disease virus replication [5] | hepatic fibrosis [6] |
| --- | --- | --- | --- | --- | --- | --- |
| O=c1ccc2ccc(O)cc2o1 [7-hydroxycoumarin, reference compound] | 0.263 |  |  |  |  |  |
| Cc1nccn1CCCCOc1cc2oc(=O)ccc2cc1O [Compound 6b, 6-Hydroxyl-7-(4-(2-methylimidazole-1-yl)butoxy)-2H-benzopyran-2-one] | > 5 | moderate anti-HBV activity | > 5 |  |  |  |
| Cc1nccn1CCCCCOc1cc2oc(=O)ccc2cc1O [Compound 6c, 6-Hydroxyl-7-(5-(2-methylimidazole-1-yl)pentyloxy)-2H-benzopyran-2-one] | > 5 | moderate anti-HBV activity | > 5 |  |  |  |
| Cc1nccn1CCCCCCOc1cc2oc(=O)ccc2cc1O [Compound 6d, 6-Hydroxyl-7-(6-(2-methylimidazole-1-yl)hexyloxy)-2H-benzopyran-2-one] | > 5 |  | > 5 |  |  |  |
| O=c1ccc2cc(O)c(O)cc2o1 [Esculetin, 6,7-dihydroxy-2-H-1-benzopyran-2-one] |  |  |  | can reduce the levels of HBsAg and hepatitis B e antigen (HBeAg) in duck serum | inhibited Newcastle disease virus replication well | improvement in hepatic fibrosis |
| C[C@]12CC[C@H]3[C@@H](CCC4=CC(=O)CC[C@@]43C)[C@@H]1CC[C@@H]2O [testosterone, reference compound] |  |  | 0.4 |  |  |  |
